Reference: patent US20130079348A1, “COMPOUNDS THAT MODULATE INTRACELLULAR CALCIUM” (CalciMedica, Inc., priority 2010, published 2013)

Legend:
[1] = biological target: T1, recombinant human STIM1 and Orai1 (HEK-293 cells) (Homo sapiens, UniProt Q96D31); experiment: Fluorescence-based assay of store-operated calcium entry in Orai1/STIM1 stable cells; assay type: cell-based; details: concentration that inhibited 50% of the Peak-Basal fluorescence signal; 30 min compound incubation; read-out: IC50(μM) JR251
T1 construct: c-myc (C); expressed in transfected cells; host or cells: HEK-293
T1 sequence (Q96D31 whole entry): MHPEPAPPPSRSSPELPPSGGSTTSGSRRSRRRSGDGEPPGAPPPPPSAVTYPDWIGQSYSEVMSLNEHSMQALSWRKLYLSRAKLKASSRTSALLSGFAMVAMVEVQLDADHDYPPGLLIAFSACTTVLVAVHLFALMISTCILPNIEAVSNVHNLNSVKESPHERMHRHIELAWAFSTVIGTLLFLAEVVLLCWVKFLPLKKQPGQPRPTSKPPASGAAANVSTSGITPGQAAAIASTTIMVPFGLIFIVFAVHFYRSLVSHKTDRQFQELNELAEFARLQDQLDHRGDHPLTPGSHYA
Method: A. Fluorescence-based Assay of Store-Operated Calcium Entry in Orai1/STIM1 Stable Cells.
Cells stably expressing recombinant human STIM1 and Orai1 were generated by transfecting a human Orai1 expression plasmid (pcDNA3.1-Orai1-cmyc) into HEK-293 cells stably overexpressing human STIM1 (Roos et al. 2005 JCB 169(3): 435-445). Colonies of cells stably expressing both STIM1 and Orai1 proteins were selected and then subcloned by limiting dilution. Cells were cultured at 37° C./6% CO2 in complete medium with 10% FBS and appropriate selection markers.
The day prior to performing the assay Orai1/STIM1 stable cells were plated in 50 μL of complete medium at 90-95% confluence in a 384 well plate. Cells were grown at 37° C./6% CO2 overnight. On the day of the assay, 1.5 μM fluo-4-AM (Invitrogen) in complete medium was added to the cells, which were then incubated for 1 hour at RT. Cells were washed once in Ca^2+-free HBSS (Hank's buffered saline solution) and 35 μl of Ca^2+-free HBSS was added to each well. Test compounds were added to wells in a 10 μL Ca^2+-free HBSS solution, prepared at 4.5× the desired final concentration, and incubated for 30 minutes at RT. The initial baseline fluorescence signal was then measured with a FLIPR^384 (Molecular Devices) plate reader. Calcium entry was initiated by adding 5 μl of 10× CaCl2 (10 mM) in HBSS, and changes in cellular fluorescence were measured with the FLIPR^384 plate reader. In each well, the magnitude of the fluorescence signal as a result of calcium entry into the cell was determined by calculating the difference between the peak fluorescence signal measured after calcium addition and the initial baseline fluorescence signal (designated Peak-Basal). IC50 values were typically calculated as the concentration that inhibited 50% of the Peak-Basal signal (Table A).

RBL-2H3 cells = experiment: Fluorescence-based assay of store-operated calcium entry in RBL-2H3 cells; assay type: cell-based; details: Rattus norvegicus, thapsigargin store depletion, 50% of the Upslope inhibited
Method: B. Fluorescence-based Assay of Store-Operated Calcium Entry in RBL-2H3 Cells.
RBL-2H3 cells were obtained from ATCC and maintained in complete medium with 10% FBS at 37° C./6% CO2.
The day prior to performing the assay, RBL-2H3 cells are plated in 50 μL of complete medium in a 384 well plate. Cells are grown at 37° C./6% CO2 overnight and grow to 50-60% confluence by the next day. On the assay day, 1.5 μM Fluo-4-AM dye (Invitrogen) in complete medium is added and incubated for 1 hour at RT. Cells are washed twice in Ca^2+-free HBSS buffer and 35 μL Ca^2+-free HBSS buffer is added to each well. 10 μL of a test compound prepared in a Ca^2+-free HBSS solution at 4.5× of the desired concentration is added to a well and incubated for 5 minutes at RT. 10 μL of thapsigargin prepared in a Ca^2+-free HBSS solution at 5.5× of the desired concentration (5.5 uM) is added to each well and incubated for an additional 25 minutes. The initial baseline fluorescence signal is measured with a FLIPR^384 (Molecular Devices) plate reader. 5 μL of 12× calcium in HBSS (12 mM) is added and changes in cellular fluorescence are measured with the FLIPR^384 plate reader. In each well, the change in the fluorescent signal as a function of time due to calcium entry into the cell is determined by calculating the difference between the fluorescent signal measured 7 seconds after calcium addition and the initial baseline fluorescence signal at time zero (t=0). This parameter is designated Upslope. The IC50 value is calculated as the concentration at which 50% of the Upslope is inhibited.

[2] = biological target: STIM1 and Orai1 in HEK293 cells (Homo sapiens, UniProt Q96D31); details: HEK293 cells expressing STIM1 and Orai1; cited from earlier work
STIM1 and Orai1 in HEK293 cells, sequence (Q96D31 whole entry): as above

Jurkat cells = details: cited from earlier work

Row | IC50 [1] [µM] | IC50 (RBL-2H3 cells) [µM] | Compound | also measured
1 | 0.5 to 1 | 1 to 10 | COc1cccc2cc(C(=O)Nc3scc(-c4ccc(Cl)cc4)c3C(=O)O)nn12 [Compound 9] | –
2 | 0.5 to 1 | ≤ 0.5 | Cc1ccc(-c2csc(NC(=O)c3nc4ccc(F)cc4s3)c2C(=O)O)c(F)c1 [Compound 12] | –
3 | – | 0.5 to 1 | Cc1ccc(-c2csc(NC(=O)c3nc4cc(C(F)(F)F)ccc4s3)c2C(=O)O)c(F)c1F [Compound 15] | –
4 | ≤ 0.5 | ≤ 0.5 | O=C(O)c1c(-c2ccc(Cl)cc2)csc1NC(=O)N1Cc2cccc(F)c2C1 [Compound 28] | –
5 | 0.5 to 1 | ≤ 0.5 | Cc1ccc(-c2csc(NC(=O)c3sc4ccccc4[n+]3[O-])c2C(=O)O)c(F)c1F [Compound 23] | –
6 | ≤ 0.5 | ≤ 0.5 | Cc1ccc(-c2csc(NC(=O)c3ccc(F)c(F)c3O)c2C(=O)O)c(F)c1F [Compound 29] | –
7 | ≤ 0.5 | ≤ 0.5 | Cc1ccc(-c2csc(NC(=O)c3cc(F)cc(F)c3O)c2C(=O)O)c(F)c1F [Compound 27] | –
8 | – | 0.5 to 1 | COc1cccn2nc(C(=O)Nc3scc(-c4ccc(C)c(F)c4F)c3C(=O)O)cc12 [Compound 10] | –
9 | 1 to 10 | 0.5 to 1 | CC(=O)Nc1cccc2nc(C(=O)Nc3scc(-c4ccc(Cl)cc4)c3C(=O)O)sc12 [Compound 24] | –
10 | ≤ 0.5 | ≤ 0.5 | Cc1ccc(-c2csc(NC(=O)c3cc4cccc(C)n4n3)c2C(=O)O)c(F)c1 [Compound 2] | –
11 | 1 to 10 | 0.5 to 1 | O=C(Nc1scc(-c2ccc(Cl)cc2)c1C(=O)O)c1cc2c(F)cc(F)cn2n1 [Compound 5] | –
12 | ≤ 0.5 | ≤ 0.5 | Cc1ccc(-c2csc(NC(=O)c3c(O)ccc(F)c3F)c2C(=O)O)c(F)c1F [Compound 26] | –
13 | ≤ 0.5 | 0.5 to 1 | COc1cccc2sc(C(=O)Nc3scc(-c4ccc(Cl)cc4)c3C(=O)O)nc12 [Compound 20] | –
14 | – | ≤ 0.5 | Cc1ccc(-c2csc(NC(=O)c3nc4ccc(Br)cc4s3)c2C(=O)O)c(F)c1F [Compound 16] | –
15 | – | 0.5 to 1 | Cc1ccc(-c2csc(NC(=O)c3cc4c(F)cc(F)cn4n3)c2C(=O)O)c(F)c1F [Compound 6] | –
16 | – | – | NCCOB(c1ccccc1)c1ccccc1 [2-aminoethoxydiphenylborate] | block of store-operated Ca2+ entry [2]: completely blocked

Row | IC50 [1] [µM] | IC50 (RBL-2H3 cells) [µM] | Compound | also measured
17 | 0.5 to 1 | 0.5 to 1 | Cc1ccc(-c2csc(NC(=O)c3nc4c(F)cccc4s3)c2C(=O)O)c(F)c1 [Compound 14] | –
18 | – | ≤ 0.5 | Cc1ccc(-c2csc(NC(=O)c3cc4cccc(C)n4n3)c2C(=O)O)c(F)c1F [Compound 3] | –
19 | 0.5 to 1 | ≤ 0.5 | COc1ccc2sc(C(=O)Nc3scc(-c4ccc(Cl)cc4)c3C(=O)O)nc2c1 [Compound 19] | –
20 | – | 0.5 to 1 | Cc1ccc(-c2csc(NC(=O)c3cc4ccc(F)cn4n3)c2C(=O)O)c(F)c1F [Compound 8] | –
21 | – | 0.5 to 1 | COc1cccn2nc(C(=O)Nc3scc(-c4ccc(Cl)cc4)c3C(=O)O)cc12 [Compound 7] | –
22 | 0.5 to 1 | 1 to 10 | Cc1ccc(-c2csc(NC(=O)c3nc4cccc(O)c4s3)c2C(=O)O)c(F)c1F [Compound 25] | –
23 | 0.5 to 1 | ≤ 0.5 | Cc1ccc(-c2csc(NC(=O)c3nc4cccc(Cl)c4s3)c2C(=O)O)c(F)c1F [Compound 22] | –
24 | ≤ 0.5 | ≤ 0.5 | Cc1ccc(-c2scc(NC(=O)c3cc4c(F)cccn4n3)c2C(=O)O)c(F)c1 [Compound 1] | –
25 | ≤ 0.5 | ≤ 0.5 | Nc1cccc2nc(C(=O)Nc3scc(-c4ccc(Cl)cc4)c3C(=O)O)sc12 [Compound 17] | –
26 | 0.5 to 1 | ≤ 0.5 | O=C(Nc1scc(-c2ccc(Cl)cc2F)c1C(=O)O)c1nc2c(F)cccc2s1 [Compound 13] | –
27 | ≤ 0.5 | ≤ 0.5 | Cc1ccc(-c2csc(NC(=O)c3nc4ccc(F)cc4s3)c2C(=O)O)c(F)c1F [Compound 11] | –
28 | 0.5 to 1 | ≤ 0.5 | O=C(Nc1scc(-c2ccc(Cl)cc2)c1C(=O)O)c1nc2cccc(Cl)c2s1 [Compound 21] | –
29 | – | – | Cc1nnsc1C(=O)Nc1ccc(-n2nc(C(F)(F)F)cc2C(F)(F)F)cc1 [BTP-2] | inhibition of proliferation (Jurkat cells; Jurkat cells and colon cancer cells): inhibits; inhibition of SOCE (Jurkat cells; Jurkat cells): inhibits
30 | 0.5 to 1 | ≤ 0.5 | Cc1ccc(-c2csc(NC(=O)c3nc4cccc(N)c4s3)c2C(=O)O)c(F)c1F [Compound 18] | –
31 | – | 1 to 10 | Cc1ccc(-c2csc(NC(=O)c3nn4ccccc4c3N)c2C(=O)O)c(F)c1F [Compound 4] | –
